Source: the CheMixHub ionic liquid set
± gives the uncertainty stated by the source.

Experiment: xn = mol fraction of the nth substance listed

CCCCCCCCOS(=O)(=O)[O-].CC[n+]1ccn(C)c1 + O + O=S(=O)([O-])[O-].[Na+].[Na+]
electrical conductivity (283.15 K, 101 kPa, frequency 0.0005 MHz, x2 = 0.7732, x3 = 0.0003656): 0.483 ± 0.029 S/m | electrical conductivity (285.15 K, 101 kPa, frequency 0.0005 MHz, x2 = 0.7732, x3 = 0.0003656): 0.523 ± 0.032 S/m | electrical conductivity (288.15 K, 101 kPa, frequency 0.0005 MHz, x2 = 0.7732, x3 = 0.0003656): 0.59 ± 0.036 S/m | electrical conductivity (291.15 K, 101 kPa, frequency 0.0005 MHz, x2 = 0.7732, x3 = 0.0003656): 0.655 ± 0.04 S/m | electrical conductivity (293.15 K, 101 kPa, frequency 0.0005 MHz, x2 = 0.7732, x3 = 0.0003656): 0.699 ± 0.042 S/m | viscosity (295.65 K, 101 kPa, x2 = 0.7732, x3 = 0.0003656): 86.6 ± 2 mPa·s | electrical conductivity (298.15 K, 101 kPa, frequency 0.0005 MHz, x2 = 0.7732, x3 = 0.0003656): 0.829 ± 0.05 S/m | viscosity (298.15 K, 101 kPa, x2 = 0.7732, x3 = 0.0003656): 75.4 ± 1.7 mPa·s | electrical conductivity (303.15 K, 101 kPa, frequency 0.0005 MHz, x2 = 0.7732, x3 = 0.0003656): 0.977 ± 0.059 S/m | viscosity (303.15 K, 101 kPa, x2 = 0.7732, x3 = 0.0003656): 58 ± 1.3 mPa·s | viscosity (308.15 K, 101 kPa, x2 = 0.7732, x3 = 0.0003656): 45.4 ± 1 mPa·s | electrical conductivity (313.15 K, 101 kPa, frequency 0.0005 MHz, x2 = 0.7732, x3 = 0.0003656): 1.35 ± 0.081 S/m | viscosity (318.15 K, 101 kPa, x2 = 0.7732, x3 = 0.0003656): 29.06 ± 0.64 mPa·s | electrical conductivity (323.15 K, 101 kPa, frequency 0.0005 MHz, x2 = 0.7732, x3 = 0.0003656): 1.68 ± 0.1 S/m | viscosity (328.15 K, 101 kPa, x2 = 0.7732, x3 = 0.0003656): 19.55 ± 0.43 mPa·s | electrical conductivity (333.15 K, 101 kPa, frequency 0.0005 MHz, x2 = 0.7732, x3 = 0.0003656): 2.11 ± 0.13 S/m | viscosity (338.15 K, 101 kPa, x2 = 0.7732, x3 = 0.0003656): 13.72 ± 0.3 mPa·s | electrical conductivity (343.15 K, 101 kPa, frequency 0.0005 MHz, x2 = 0.7732, x3 = 0.0003656): 2.63 ± 0.16 S/m | electrical conductivity (353.15 K, 101 kPa, frequency 0.0005 MHz, x2 = 0.7732, x3 = 0.0003656): 3.13 ± 0.19 S/m | electrical conductivity (358.15 K, 101 kPa, frequency 0.0005 MHz, x2 = 0.7732, x3 = 0.0003656): 3.41 ± 0.21 S/m | electrical conductivity (363.15 K, 101 kPa, frequency 0.0005 MHz, x2 = 0.7732, x3 = 0.0003656): 3.72 ± 0.22 S/m

CCCCCC[n+]1ccn(C)c1.O=S(=O)([N-]S(=O)(=O)C(F)(F)F)C(F)(F)F + O=C1CCCO1
electrical conductivity (293.15 K, 100 kPa, frequency 0.005 MHz, x2 = 0.2973): 0.296 ± 0.009 S/m | electrical conductivity (293.15 K, 100 kPa, frequency 0.005 MHz, x2 = 0.9001): 1.11 ± 0.034 S/m | electrical conductivity (293.15 K, 100 kPa, frequency 0.005 MHz, x2 = 0.9493): 0.746 ± 0.025 S/m | electrical conductivity (298.15 K, 100 kPa, frequency 0.005 MHz, x2 = 0.1076): 0.261 ± 0.008 S/m | electrical conductivity (298.15 K, 100 kPa, frequency 0.005 MHz, x2 = 0.9493): 0.819 ± 0.028 S/m | electrical conductivity (303.15 K, 100 kPa, frequency 0.005 MHz, x2 = 0): 0.273 ± 0.008 S/m | electrical conductivity (303.15 K, 100 kPa, frequency 0.005 MHz, x2 = 0.4956): 0.657 ± 0.02 S/m | electrical conductivity (303.15 K, 100 kPa, frequency 0.005 MHz, x2 = 0.9001): 1.34 ± 0.041 S/m | electrical conductivity (308.15 K, 100 kPa, frequency 0.005 MHz, x2 = 0): 0.33 ± 0.01 S/m | electrical conductivity (308.15 K, 100 kPa, frequency 0.005 MHz, x2 = 0.1076): 0.387 ± 0.012 S/m | electrical conductivity (308.15 K, 100 kPa, frequency 0.005 MHz, x2 = 0.2973): 0.514 ± 0.016 S/m | electrical conductivity (308.15 K, 100 kPa, frequency 0.005 MHz, x2 = 0.9001): 1.45 ± 0.044 S/m | electrical conductivity (313.15 K, 100 kPa, frequency 0.005 MHz, x2 = 0.1076): 0.459 ± 0.014 S/m | electrical conductivity (313.15 K, 100 kPa, frequency 0.005 MHz, x2 = 0.2973): 0.596 ± 0.018 S/m | electrical conductivity (313.15 K, 100 kPa, frequency 0.005 MHz, x2 = 0.6996): 1.31 ± 0.04 S/m | electrical conductivity (313.15 K, 100 kPa, frequency 0.005 MHz, x2 = 0.8456): 1.61 ± 0.048 S/m | electrical conductivity (318.15 K, 100 kPa, frequency 0.005 MHz, x2 = 0.2973): 0.687 ± 0.021 S/m | electrical conductivity (318.15 K, 100 kPa, frequency 0.005 MHz, x2 = 0.8456): 1.73 ± 0.052 S/m | electrical conductivity (318.15 K, 100 kPa, frequency 0.005 MHz, x2 = 0.9493): 1.11 ± 0.038 S/m | electrical conductivity (323.15 K, 100 kPa, frequency 0.005 MHz, x2 = 0): 0.553 ± 0.017 S/m | electrical conductivity (323.15 K, 100 kPa, frequency 0.005 MHz, x2 = 0.1076): 0.624 ± 0.019 S/m | electrical conductivity (323.15 K, 100 kPa, frequency 0.005 MHz, x2 = 0.2973): 0.788 ± 0.024 S/m | electrical conductivity (323.15 K, 100 kPa, frequency 0.005 MHz, x2 = 0.8001): 1.85 ± 0.056 S/m | electrical conductivity (323.15 K, 100 kPa, frequency 0.005 MHz, x2 = 0.8456): 1.88 ± 0.057 S/m

CCC[P+](c1ccccc1)(c1ccccc1)c1ccccc1.[Br-] + O=S=O + OCCO
viscosity (303.15 K, 100 kPa, x2 = 0.01565, x3 = 0.9603): 20.6 ± 0.9 mPa·s | viscosity (313.15 K, 100 kPa, x2 = 0.01166, x3 = 0.9642): 17 ± 0.7 mPa·s | viscosity (323.15 K, 100 kPa, x2 = 0.009018, x3 = 0.9668): 14.1 ± 0.6 mPa·s | viscosity (333.15 K, 100 kPa, x2 = 0.007838, x3 = 0.968): 11.6 ± 0.5 mPa·s | viscosity (343.15 K, 100 kPa, x2 = 0.006951, x3 = 0.9688): 10.5 ± 0.4 mPa·s

CCCCCC[n+]1ccn(C)c1.[Br-] + OC1OC[C@@H](O)[C@H](O)[C@H]1O + O
viscosity (298.15 K, 101 kPa, x2 = 0, x1 = 0.001844): 0.948 ± 0.014 mPa·s | viscosity (298.15 K, 101 kPa, x2 = 0, x1 = 0.003654): 1.005 ± 0.015 mPa·s | viscosity (298.15 K, 101 kPa, x2 = 0, x1 = 0.005425): 1.053 ± 0.015 mPa·s | viscosity (298.15 K, 101 kPa, x2 = 0, x1 = 0.007153): 1.101 ± 0.015 mPa·s

CCC[P+](c1ccccc1)(c1ccccc1)c1ccccc1.[Br-] + OCCO
viscosity (303.15 K, 100 kPa, x2 = 0.9756): 20.5 ± 0.8 mPa·s | viscosity (313.15 K, 100 kPa, x2 = 0.9756): 17.1 ± 0.7 mPa·s | viscosity (323.15 K, 100 kPa, x2 = 0.9756): 14 ± 0.6 mPa·s | viscosity (333.15 K, 100 kPa, x2 = 0.9756): 11.6 ± 0.5 mPa·s | viscosity (343.15 K, 100 kPa, x2 = 0.9756): 10 ± 0.4 mPa·s | viscosity (353.15 K, 100 kPa, x2 = 0.9756): 9.1 ± 0.4 mPa·s
